One assay has as its system mice. The assay can be described thus: Analgesic activity - stretching provoked by acetic acid (Koster et al). In kind it is in vivo. To be noted: Mus musculus, 0.25 h, oral, one half hour before intraperitoneal 1% acetic acid 100 mg/kg, 15 minute observation, fasted, read-out: DA50 (dose which reduced the number of stretchings by 50%). On the procedure: The test procedure was that of Koster et al wherein an intraperitoneal injection of aqueous acetic acid in a concentration of 1% at a dose of 100 mg/kg caused in mice repeated movements of stretching and twisting which can persist for more than 6 hours. Analgesics prevent or lessen the syndrome. The test products were orally administered one half hour before the acetic acid injection and the mice were fasted from the day before the test. The stretching were counted for each mouse during a 15 minute observation period beginning right after the acetic acid injection and the analgesic effect was expressed as a percentage of protection with respect to the controls.

The subject of a further assay is guinea pig ileon. In words: Relaxant activity on the guinea pig ileon (isolated organ bath). The settings on record: isolated terminal guinea pig ileon, oxygenated Tyrode liquid, 37° C; for minimal effective concentration: Cavia porcellus, read-out: Relaxant Activity (concentration which caused a suppression of spontaneous contractions and relaxed the organ). On the procedure: The relaxant effect of the test compounds was determined on guinea pig ileon using the following procedure. The terminal portion of the guinea pig ileon was removed and washed with Tyrode solution at 37° C. It was then suspended in a bath of oxygenated Tyrode liquid at 37° C and the contractions were registered on a collector attached to a Sanborn polygraph. The test product was added to bath of the organ with a low volume and the concentration which caused a suppression of spontaneous contractions and relaxed the organ causing a lowering of the line of the base was considered to be relaxant.

The test system of assay [1] is prostaglandin synthetases of lungs of guinea pigs. In words: Inhibitory effect against biosynthesis of prostaglandins starting with arachidonic acid by prostaglandin synthetases of lungs of guinea pigs (Vane). To be noted: guinea pig lung homogenate supernatant, 10 μg arachidonic acid, 30 minutes at 37° C; prostaglandin-like activity read on isolated rat colon; read-out: CI50 (inhibited by 50% the biosynthesis activity). It counts as biochemical. The text has this:
C. INHIBITORY EFFECT AGAINST BIOSYNTHESIS OF PROSTAGLANDINS SYNTHESIS OF PROSTAGLANDINS STARTING WITH ARACHIDONIC ACID BY MEANS OF PROSTAGLANDIN SYNTHETASES OF LUNGS OF GUINEA PIGS.
This test used the procedure of Vane [Nature New Biology, Vol. 231 (1971), p. 232-235] wherein the lungs of adult guinea pigs (2 per series) were rapidly removed and washed with a modified, iced Bucher medium. The lung tissue was homogenized in a Turrax grinder in a minute and the homogenate was centrifuged for 20 minutes to 1200 g. The supernatant was used as a preparation of prostaglandin synthetases.
A solution of arachidonic acid in ethanol at a concentration of 10 mg/ml was diluted with a 0.2% aqueous sodium carbonate solution and was then diluted further with a modified Bucher medium to obtain a final acid concentration of 200 μg/ml. The biosynthesis inhibitors are put into aqueous or dilute alcohol (20% maximum) solutions. Tubes were prepared containing 1 ml of the prostaglandin synthetases preparation, 10 μg of arachidonic acid and 0.1 ml of inhibiting solution or, for the controls, an equal volume of water or dilute alcohol. The tubes were incubated with stirring for 30 minutes at 37° C in aerobic conditions and each test consisted of a tube containing a biosynthesis inhibitor, one biosynthesis control with incubated arachidonic acid and one control with non-incubated arachidonic acid. The latter control permitted a evaluation of amount of natural prostaglandins present in the ground lung and the results obtained with this control must therefore be taken away from the control of biosynthesis and from all the tests. The reactions were stopped by immension in boiling water until the proteins are coagulated. The dosage of "prostaglandin like" activity was effected biologically on the isolated rat colon suspended in Krebs liquid, mixed to augment the specificity, with antagonists to other contracturant mediators susceptible to interfere. The antagonists were mepyramine, scopolamine, methysergide, phenoxybenzamine and propanolol.
A comparison of the results registered in the presence or absence of a test product permitted the calculation of the percentage of biosynthesis inhibition. The CI50 dose which inhibited by 50% the biosynthesis activity was graphically obtained by straight line representing the percent of inhibition with reference to the incubated controls against the log of the concentration in μg/ml and the results are reported in Table II.

For the compound `CCCCC[C@@H](/C=C/[C@H]1CC[C@H](O)[C@@H]1C(=O)OCC)OC(=O)c1ccccc1C(=O)O` (relative stereo) [Product B, ethyl (1RS, 2SR, 5RS, 3'SR) (1'E) 2-hydroxy-5-(3'-α-hemiphthaloyloxy-1'-octenyl)-cyclopentanecarboxylate], the ED50 with mice was around 100 mg/kg.
Take `CCCCCCCCCC(=O)O[C@H](/C=C/[C@H]1CC[C@H](O)[C@@H]1C(=O)OCC)CCCCC` (relative stereo) [Product C, ethyl (1RS, 2SR, 5RS, 3'SR) (1'E) 2-hydroxy-5-(3'-decanoyloxy-1'-octenyl)-cyclopentanecarboxylate]: in the assay with guinea pig ileon, the minimal effective concentration is 20 µg/mL. For the same compound, in assay [1], the IC50 worked out at 137 µM.
In the case of `CCCCC[C@@H](/C=C/[C@H]1CC[C@H](O)[C@@H]1C(=O)OCC)OC(=O)CCC(=O)O` (relative stereo) [Product F, ethyl (1RS, 2SR, 5RS, 3'SR) (1'E) 2-hydroxy-5-(3'-hemisuccinyloxy-1'-octenyl)-cyclopentanecarboxylate], in assay [1], the IC50 was determined as 123 µM.
In the case of `CCCCC[C@H](O)/C=C/[C@H]1CC[C@H](O)[C@H]1CO` (racemic) [Product A, (1RS, 2SR, 5RS, 3'SR) (1'E) 2,3'-dihydroxy-5-(1'-octenyl)-cyclopentane methonol], in the assay on guinea pig ileon, the “Relaxant Activity (concentration which caused a suppression of spontaneous contractions and relaxed the organ)” value came out at 20 µg/mL.
Take `CCCCC[C@@H](/C=C/[C@H]1CC[C@@H](O)[C@@H]1C(=O)OCC)OC` (relative stereo) [Product E, ethyl (1RS, 2RS, 5RS, 3'SR) (1'E) 2-hydroxy-5(3'-methoxy-1'-octenyl)-cyclopentanecarboxylate]: the minimal effective concentration with guinea pig ileon amounted to 10 µg/mL. Also, the IC50 in assay [1] worked out at 671 µM.
With `CCCCCCCCCC(=O)O[C@H](/C=C/[C@H]1CC[C@@H](O)[C@@H]1C(=O)OCC)CCCCC` (relative stereo) [Product G, ethyl (1RS, 2RS, 5RS, 3'SR) (1'E) 2-hydroxy-5-(3'-decanoyloxy-1'-octenyl)-cyclopentanecarboxylate], in assay [1], the IC50 turned out to be 113 µM.
Take `CCCCC[C@@H](/C=C/[C@H]1CC[C@H](O)[C@@H]1C(=O)OCC)OC` (relative stereo) [Product D, ethyl (1RS, 2SR, 5RS, 3'SR) (1'E) 2-hydroxy-5-(3'methoxy-1'-octenyl)-cyclopentanecarboxylate]: the minimal effective concentration in the assay with guinea pig ileon worked out at 5 µg/mL. The IC50 in assay [1] is 436 µM.

Source of the values: patent publication US4072755A, “Novel cyclopentanoic acid derivatives” (Roussel UCLAF, priority 1975, dated 1978).
